According to ChEMBL document CHEMBL3407451, “Novel approach to bis(indolyl)methanes: de novo synthesis of 1-hydroxyiminomethyl derivatives with anti-cancer properties” (Eur J Med Chem, 2015):

How the values were obtained:
[1] = system: HepG2; assay: Selectivity index, ratio of IC50 for human HepG2 cells to IC50 for mouse S17 cells; format: functional
[2] = Selectivity index, ratio of IC50 for human MDA-MB-468 cells to IC50 for mouse S17 cells; format: functional
[3] = system: EL4; assay: Selectivity index, ratio of IC50 for mouse EL4 cells to IC50 for mouse N9 cells; format: functional
[4] = system: MDA-MB-468; assay: Cytotoxicity against human MDA-MB-468 cells assessed as reduction in cell viability after 72 hrs by MTT colorimetric assay; format: functional, cell-based; details: MDA-MB-468, 72 h
[5] = system: THP-1; assay: Selectivity index, ratio of IC50 for human THP1 cells to IC50 for mouse S17 cells; format: functional
[6] = system: N9; assay: Selectivity index, ratio of IC50 for human THP1 cells to IC50 for mouse N9 cells; format: functional
[7] = system: THP-1; assay: Cytotoxicity against human THP1 cells assessed as reduction in cell viability after 72 hrs by MTT colorimetric assay; format: functional, cell-based; details: THP-1, 72 h
[8] = system: EL4; assay: Cytotoxicity against mouse EL4 cells assessed as reduction in cell viability after 72 hrs by MTT colorimetric assay; format: functional, cell-based; details: EL4, 72 h
[9] = system: N9; assay: Selectivity index, ratio of IC50 for human MDA-MB-468 cells to IC50 for mouse N9 cells; format: functional
[10] = Cytotoxicity against mouse S17 cells assessed as reduction in cell viability after 72 hrs by MTT colorimetric assay; format: cell-based; details: S17, 72 h
[11] = system: HepG2; assay: Selectivity index, ratio of IC50 for human HepG2 cells to IC50 for mouse N9 cells; format: functional
[12] = system: N9; assay: Selectivity index, ratio of IC50 for mouse RAW264.7 cells to IC50 for mouse N9 cells; format: functional
[13] = system: RAW264.7; assay: Cytotoxicity against mouse RAW264.7 cells assessed as reduction in cell viability after 72 hrs by MTT colorimetric assay; format: functional, cell-based; details: RAW264.7, 72 h
[14] = system: HepG2; assay: Cytotoxicity against human HepG2 cells assessed as reduction in cell viability after 72 hrs by MTT colorimetric assay; format: functional, cell-based; details: HepG2, 72 h
[15] = system: N9; assay: Selectivity index, ratio of IC50 for human U937 cells to IC50 for mouse N9 cells; format: functional
[16] = Cytotoxicity against human U937 cells assessed as reduction in cell viability after 72 hrs by MTT colorimetric assay; format: functional, cell-based; details: U-937, 72 h

Compound	Ratio IC50 [1]	Ratio IC50 [2]	Ratio IC50 [3]	IC50 [4] [µM]	Ratio IC50 [5]	Ratio IC50 [6]	IC50 [7] [µM]	IC50 [8] [µM]	Ratio IC50 [9]	IC50 [10] [µM]	Ratio IC50 [11]	Ratio IC50 [12]	IC50 [13] [µM]	IC50 [14] [µM]	Ratio IC50 [15]	IC50 [16] [µM]
Cn1cc(C(/C(=N\O)c2ccc(Br)cc2)c2cn(C)c3ccccc23)c2ccccc21	1.44	0.81	0.19	63.7	0.41	0.16	124	106	0.31	51.4	0.56	0.47	42.2	35.7	0.2	97
C/C(=N\O)C(c1c[nH]c2ccccc12)c1c[nH]c2ccccc12	–	–	–	–	0.62	–	30.7	23.9	–	26.1	–	–	–	–	–	42.5
COc1cc([C@@H]2c3cc4c(cc3[C@@H](O[C@@H]3O[C@@H]5CO[C@@H](C)O[C@H]5[C@H](O)[C@H]3O)[C@H]3COC(=O)[C@H]23)OCO4)cc(OC)c1O [ETOPOSIDE]	8.97	–	0.8	6.69	8.55	–	1.82	4.9	0.88	10.4	1.71	–	0.82	1.4	–	1.1
O/N=C(/c1ccc(F)cc1)C(c1c[nH]c2ccccc12)c1c[nH]c2ccccc12	–	–	–	–	0.89	–	23	16.9	–	24.9	–	–	–	–	–	28
O/N=C(/c1ccccc1)C(c1c[nH]c2ccccc12)c1c[nH]c2ccccc12	0.94	2.45	2.45	10.7	–	1.61	18.1	11.9	2.72	26.3	1.05	2.4	12.2	28	0.86	34.1
C/C(=N/O)C(c1c[nH]c2ccccc12)c1c[nH]c2ccccc12	–	–	–	–	0.6	–	57.6	39	–	35.8	–	–	–	–	–	59.3
O/N=C(/c1ccc(Br)cc1)C(c1c[nH]c2ccccc12)c1c[nH]c2ccccc12	0.98	0.73	13.94	22.1	10.04	14.2	1.62	1.65	1.04	16.3	1.38	0.96	23.9	16.6	14.02	1.64
